The target in experiment [1] is Large T antigen (Simian virus 40, UniProt P03070). It counts as functional, Betapolyomavirus macacae.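 Also: Confirmatory-stage PubChem screen for compounds that inhibit SV40 T antigen.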
Experiment [2] concerns the target T1, DNA repair protein RAD52 homolog (Homo sapiens, UniProt P43351).
T1 sequence (P43351 whole entry): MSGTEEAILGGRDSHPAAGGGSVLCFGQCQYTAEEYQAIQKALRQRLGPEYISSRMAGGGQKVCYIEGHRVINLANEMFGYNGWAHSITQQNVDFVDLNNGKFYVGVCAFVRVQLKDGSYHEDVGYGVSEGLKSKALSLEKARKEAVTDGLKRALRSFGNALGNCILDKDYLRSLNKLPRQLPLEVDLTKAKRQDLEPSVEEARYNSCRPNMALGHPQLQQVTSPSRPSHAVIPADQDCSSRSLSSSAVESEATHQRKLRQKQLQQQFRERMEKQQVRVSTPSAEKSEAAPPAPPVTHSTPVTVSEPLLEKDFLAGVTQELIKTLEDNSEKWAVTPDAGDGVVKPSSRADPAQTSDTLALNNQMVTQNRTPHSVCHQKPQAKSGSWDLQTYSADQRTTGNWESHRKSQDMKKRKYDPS
It counts as functional, biochemical.

For experiment [3], the target named is T2, Short transient receptor potential channel 4 (Mus musculus, UniProt Q9QUQ5).
T2 sequence (Q9QUQ5 whole entry): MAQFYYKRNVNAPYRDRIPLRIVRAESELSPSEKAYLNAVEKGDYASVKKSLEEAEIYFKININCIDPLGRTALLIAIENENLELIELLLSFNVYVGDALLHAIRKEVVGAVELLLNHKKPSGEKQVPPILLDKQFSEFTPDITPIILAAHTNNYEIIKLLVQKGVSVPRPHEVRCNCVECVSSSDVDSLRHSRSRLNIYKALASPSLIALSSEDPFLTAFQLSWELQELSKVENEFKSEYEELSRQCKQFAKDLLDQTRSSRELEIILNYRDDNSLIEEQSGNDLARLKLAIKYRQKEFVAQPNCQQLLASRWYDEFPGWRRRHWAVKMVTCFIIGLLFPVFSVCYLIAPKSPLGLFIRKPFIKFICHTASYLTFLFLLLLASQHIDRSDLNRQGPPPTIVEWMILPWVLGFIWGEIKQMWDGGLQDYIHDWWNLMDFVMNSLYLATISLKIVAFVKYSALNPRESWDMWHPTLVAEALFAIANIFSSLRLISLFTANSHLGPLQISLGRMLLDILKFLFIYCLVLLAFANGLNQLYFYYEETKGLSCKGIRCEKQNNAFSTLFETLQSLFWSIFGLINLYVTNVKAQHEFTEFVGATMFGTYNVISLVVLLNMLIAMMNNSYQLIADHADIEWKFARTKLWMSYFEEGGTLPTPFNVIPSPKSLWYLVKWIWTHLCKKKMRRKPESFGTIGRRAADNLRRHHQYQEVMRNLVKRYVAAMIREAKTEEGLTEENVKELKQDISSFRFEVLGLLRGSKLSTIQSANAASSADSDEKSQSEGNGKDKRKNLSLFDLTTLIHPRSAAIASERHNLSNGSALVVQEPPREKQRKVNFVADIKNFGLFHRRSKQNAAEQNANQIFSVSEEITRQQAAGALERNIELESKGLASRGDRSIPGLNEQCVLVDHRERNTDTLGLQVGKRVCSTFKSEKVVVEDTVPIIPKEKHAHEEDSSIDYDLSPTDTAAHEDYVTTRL
As to the kind of experiment: mouse TRPC4 channel inhibitors, dose response, cell-based, HEK293 TRPC4/mu-opioid, Fluo-4 calcium (AID 434942).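 Also: potency of inhibitors blocking the TRPC4 calcium response.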 It counts as functional.

Experiment [4] can be described thus: inhibitors of HIV Env-driven cell fusion, dose response, cherry-pick (AID 652057). It counts as functional, cell-based.
Experiment [5] can be described thus: ZM109 Env clade C HIV-1 fusion inhibitors, dose response, HeLa effector, CEM target cells, luciferase, cherry-pick (AID 652058). It counts as functional, cell-based.
Experiment [6] in a line: off-target signal loss in HeLa-CEM21 co-culture – HeLa F-luc CTL cells, cherry-picked, counter-screen for HIV-1 Env fusion inhibitor project, dose response (AID 652040).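 Also: potency for signal decrease marking cytotoxic or nonspecific inhibition.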 It counts as functional, cell-based. For orientation: A counterscreen serves to expose hits that act by an unwanted route or on another target.
Experiment [7] in a line: inhibitors of clade B AD8 Env fusion, dose response, cell-based, cherry-pick (AID 652062).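 Also: luciferase signal from cell-cell fusion driven by HIV-1 clade B AD8 Env; potency is for inhibitors of fusion seen as a drop in luminescence.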 It counts as functional.
The target of experiment [8] is Nonstructural protein 1 (Influenza A virus, UniProt Q194T2). It counts as functional, Influenza A virus (A/California/07/2009(H1N1)).
Nonstructural protein 1, sequence (Q194T2 whole entry): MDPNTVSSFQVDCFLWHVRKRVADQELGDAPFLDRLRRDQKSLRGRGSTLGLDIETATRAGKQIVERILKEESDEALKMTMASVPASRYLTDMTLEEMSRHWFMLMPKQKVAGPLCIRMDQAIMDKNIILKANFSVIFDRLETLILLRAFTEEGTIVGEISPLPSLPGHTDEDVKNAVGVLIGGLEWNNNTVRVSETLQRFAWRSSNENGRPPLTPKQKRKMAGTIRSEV
For experiment [9], the target named is T3, Ubiquitin-conjugating enzyme E2 N (Homo sapiens, UniProt P61088).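 Also: Dose-response confirmation in a TR-FRET assay detecting UBC13-driven polyubiquitin chain formation, inhibition measured.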
T3 sequence (P61088 whole entry): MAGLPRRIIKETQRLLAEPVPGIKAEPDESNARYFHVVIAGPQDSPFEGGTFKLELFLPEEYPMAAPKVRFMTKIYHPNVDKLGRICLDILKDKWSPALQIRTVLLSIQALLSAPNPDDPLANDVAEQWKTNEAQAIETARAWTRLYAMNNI
It counts as functional.

Experiment [10] has as its target T4, Protein skinhead-1 (Caenorhabditis elegans, UniProt P34707).
T4 sequence (P34707 whole entry): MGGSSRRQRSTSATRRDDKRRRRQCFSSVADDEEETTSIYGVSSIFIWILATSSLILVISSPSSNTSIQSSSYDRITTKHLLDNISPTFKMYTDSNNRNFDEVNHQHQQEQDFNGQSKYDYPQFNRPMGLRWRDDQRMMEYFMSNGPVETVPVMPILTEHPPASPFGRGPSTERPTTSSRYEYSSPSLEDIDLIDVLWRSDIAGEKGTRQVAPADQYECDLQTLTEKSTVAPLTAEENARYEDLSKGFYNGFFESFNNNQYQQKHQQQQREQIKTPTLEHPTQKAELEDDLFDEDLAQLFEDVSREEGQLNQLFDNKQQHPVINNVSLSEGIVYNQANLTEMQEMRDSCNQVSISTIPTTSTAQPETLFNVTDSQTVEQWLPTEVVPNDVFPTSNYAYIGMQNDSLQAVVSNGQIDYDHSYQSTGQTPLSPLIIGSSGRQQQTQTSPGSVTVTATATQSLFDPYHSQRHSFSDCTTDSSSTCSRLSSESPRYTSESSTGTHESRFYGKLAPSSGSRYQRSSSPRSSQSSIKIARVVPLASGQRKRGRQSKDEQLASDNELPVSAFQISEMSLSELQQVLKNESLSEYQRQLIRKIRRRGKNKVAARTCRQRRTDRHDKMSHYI
It counts as functional.

Experiment [11] has as its target T5, DNA repair and recombination protein RAD54-like (Homo sapiens, UniProt Q92698).
T5 sequence (Q92698 whole entry): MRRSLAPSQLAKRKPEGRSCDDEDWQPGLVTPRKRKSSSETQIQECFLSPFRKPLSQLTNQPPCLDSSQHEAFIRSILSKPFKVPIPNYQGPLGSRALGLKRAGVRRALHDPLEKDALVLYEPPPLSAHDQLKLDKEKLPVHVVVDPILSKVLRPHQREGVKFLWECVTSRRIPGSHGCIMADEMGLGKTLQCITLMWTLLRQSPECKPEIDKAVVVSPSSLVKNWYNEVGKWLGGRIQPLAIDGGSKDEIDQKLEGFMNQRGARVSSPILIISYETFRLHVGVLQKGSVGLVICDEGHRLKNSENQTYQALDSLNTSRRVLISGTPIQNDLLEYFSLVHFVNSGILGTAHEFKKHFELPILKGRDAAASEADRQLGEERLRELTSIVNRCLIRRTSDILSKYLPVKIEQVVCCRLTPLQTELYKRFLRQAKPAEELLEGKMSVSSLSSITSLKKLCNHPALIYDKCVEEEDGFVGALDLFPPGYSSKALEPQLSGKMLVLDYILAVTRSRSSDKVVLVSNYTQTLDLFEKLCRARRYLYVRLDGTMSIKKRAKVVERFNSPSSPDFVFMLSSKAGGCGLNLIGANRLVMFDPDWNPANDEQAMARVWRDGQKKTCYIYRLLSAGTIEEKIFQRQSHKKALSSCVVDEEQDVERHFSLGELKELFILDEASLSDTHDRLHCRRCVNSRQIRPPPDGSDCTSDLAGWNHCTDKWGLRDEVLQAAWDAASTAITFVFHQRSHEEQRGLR
Nature of the experiment: inhibitors of human RAD54 branch migration, confirmation, biochemical, fluorescence, cherry-picked samples, dose series (AID 651657). It counts as functional.

The nature of experiment [12]: P. falciparum Dd2 growth inhibitors, dose response, SYBR Green, cherry-picked samples (AID 1159567). It counts as functional, cell-based.
Experiment [13] addresses Heat shock protein HSP 90-alpha (Homo sapiens, UniProt P07900). It counts as functional, organism-based.
In experiment [14] the test system is INS1. Nature of the experiment: beta cell apoptosis inhibitors, cytokine rescue, dose response, luminescence, retest (AID 449756).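 Also: cell death triggered by IL-1 beta plus TNF-alpha plus IFN-gamma mixture; protective hits raise ATP signal compared with cytokine alone wells.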 Conditions: Rattus norvegicus. It counts as functional, cell-based.

From ChEMBL document CHEMBL1201862, “PubChem BioAssay data set” (2004) come the findings set out here.

The source made the active and inactive calls. Bounds are passed on as bounds.

Large T antigen, sequence (P03070 whole entry): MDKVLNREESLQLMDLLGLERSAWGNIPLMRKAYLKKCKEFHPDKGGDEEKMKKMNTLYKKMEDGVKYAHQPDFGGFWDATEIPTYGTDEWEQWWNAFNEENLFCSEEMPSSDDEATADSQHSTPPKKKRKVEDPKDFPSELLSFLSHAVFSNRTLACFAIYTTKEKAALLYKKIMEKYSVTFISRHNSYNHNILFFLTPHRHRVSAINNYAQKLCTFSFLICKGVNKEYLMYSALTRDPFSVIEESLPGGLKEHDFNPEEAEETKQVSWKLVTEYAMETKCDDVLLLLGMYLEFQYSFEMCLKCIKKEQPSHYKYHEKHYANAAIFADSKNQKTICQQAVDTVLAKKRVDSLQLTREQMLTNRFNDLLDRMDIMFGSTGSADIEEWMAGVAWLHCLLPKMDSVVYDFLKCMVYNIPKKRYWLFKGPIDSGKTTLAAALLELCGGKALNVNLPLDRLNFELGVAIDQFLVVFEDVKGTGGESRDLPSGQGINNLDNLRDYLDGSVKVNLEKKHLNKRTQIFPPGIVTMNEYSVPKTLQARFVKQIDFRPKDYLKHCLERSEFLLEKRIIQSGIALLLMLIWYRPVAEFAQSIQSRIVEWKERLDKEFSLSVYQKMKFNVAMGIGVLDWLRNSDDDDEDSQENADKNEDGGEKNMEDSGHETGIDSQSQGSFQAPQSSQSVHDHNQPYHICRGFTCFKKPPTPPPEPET

For the compound `CN1CCN(c2nc(Nc3ccc(O)cc3)nc3ccccc23)CC1`, in [1], the IC50 was 8.58 µM (active). Besides, the AC50 in [2] was 5.21 µM (active). As for `Clc1ccc(-c2csc3ncnc(NCCN4CCOCC4)c23)cc1`, the EC50 in experiment [3] was 3.35 µM (active). The concentration at half-maximal activity (AC50) in experiment [4] was 3.74 µM (active); in experiment [5], 2.24 µM (active); in [6], > 70 µM (inactive); in [7], 18.1 µM (active).

For the compound `O=C(CSc1n[nH]c(-c2ccccn2)n1)Nc1ccccc1F`, the concentration for half-maximal inhibition (IC50) in experiment [8] was 7.23 µM (active). In the case of `COc1cc2c(cc1OC)-c1cc3ccc(OC)c(OC)c3c[n+]1CC2` [PALMATINE CHLORIDE], in experiment [2], the AC50 was 5.19 µM (active). Consider `CN1CCc2ccccc2Cc2[nH]c3ccccc3c2CC1`, for which the half-maximal activity concentration (AC50) in experiment [4] was 25.6 µM (active); in experiment [5], 8.06 µM (active); in [6], > 70 µM (inactive).

As for `CN(C)c1ccc(NC(=O)CN2CCC(NC(=O)C3CCCCC3)CC2)cc1`, the IC50 in experiment [9] is > 20 µM (inactive). Further, the half-maximal activity concentration (AC50) in [2] is 14.8 µM (active). Regarding `CCN(C[C@H]1N[C@@](C)(C(=O)OC)[C@H]2C(=O)N(Cc3ccccc3)C(=O)[C@@H]12)C(=O)Nc1ccccc1`, the AC50 in experiment [4] is 2.92 µM (active); in experiment [5], 2.42 µM (active); in experiment [6], 3.81 µM (active); in experiment [7], 2.56 µM (active). Consider `CC(=O)N1/C(=C/c2ccc(N(C)C)cc2)C(=O)c2ccccc21`, for which the IC50 is 16.7 µM (active) in [8] and 76.9 µM (inactive) in [10]. With `CN1CCN(c2cc(N3CCNCC3)ccc2[N+](=O)[O-])CC1`, the concentration at half-maximal activity (AC50) in [11] is 14.5 µM (active). Turning to `CN1c2ccc(-c3ccccc3)cc2[C@@H]2[C@@H](CCN2C(=O)c2ccccc2)[C@H]1CO`, in experiment [12], the AC50 was 8.29 µM (active).

Take `CCN(CC)CCCNc1nc(-c2ccccc2)nc2ccccc12`: the concentration at half-maximal activity (AC50) in experiment [11] was 13 µM (active). For `COc1ccc(Nc2cc(C)nc3ccc(OC)cc23)cc1`, the half-maximal effective concentration (EC50) in experiment [3] is 4.73 µM (active). The results for the AC50 in [11] and in experiment [2] were 20.5 µM (active) and 15 µM (active), respectively. With `O=C(NN=Cc1cccc([N+](=O)[O-])c1)c1cc[n+](CCO)cc1`, the half-maximal activity concentration (AC50) in experiment [2] is 14.1 µM (active). `CCOC(=O)c1cnc2c(C)cccc2c1NCCCN1CCOCC1`: the half-maximal activity concentration (AC50) in [11] is 16.6 µM (active). Consider `CN(C)CCNC(=O)c1cccc(-c2cnc3c(NC=O)cc(-c4ccc(S(C)(=O)=O)cc4)cn23)c1`, for which the half-maximal activity concentration (AC50) was 24.1 µM (active) in experiment [11] and 5.29 µM (active) in experiment [2].

For `O=C(C[C@H]1CC[C@@H]2[C@H](COC[C@H](O)CN2Cc2cc(F)ccc2F)O1)N[C@@H]1CCN(Cc2ccccc2)C1`, in experiment [12], the AC50 is 7.42 µM (active). For `CCOc1ccccc1-c1c2cc(O)c(=O)cc-2oc2cc(O)c(O)cc12`, the IC50 in experiment [8] was 28.1 µM (active). Further, the half-maximal activity concentration (AC50) in experiment [13] is 6.24 µM (active). Consider `Nc1nonc1-n1nnc(C(=O)N/N=C/c2ccccc2O)c1CN1CCCC1`, for which, in experiment [8], the IC50 is 11.4 µM (active). The AC50 in experiment [14] is 5.79 µM (active).

What is called IC50 is the concentration at which inhibition is half-maximal. By AC50 is commonly meant the midpoint of the concentration-response curve, whichever way the signal moves. As usually defined, the EC50 is the midpoint of the concentration-response curve.
